Test results published in patent US9963455B2, “Pyrazolo[1,5-a]pyrimidines as antiviral compounds” (Curovir AB, priority 2014, dated 2018).

Tests used:
Ljungan virus strain 012 = assay: CPE inhibition in mammalian cell culture, LV012; format: cell-based; conditions: Parechovirus B; Conc. 10 µM; read-out: antiviral effect, LV012
Ljungan virus strain 145 = assay: CPE inhibition in mammalian cell culture, LV145; format: cell-based; design: inhibition: dose or concentration left out as unconfirmed; conditions: Parechovirus B; Conc.; read-out: antiviral effect, LV145
[1] = test system: encephalomyocarditis virus; assay: CPE inhibition in mammalian cell culture, EMCV; format: cell-based; design: inhibition: dose or concentration left out as unconfirmed; conditions: Cardiovirus A; Conc.; read-out: antiviral effect, EMCV
[2] = test system: Human parechovirus strain 1; assay: CPE inhibition in mammalian cell culture, HPeV-1; format: cell-based; conditions: Parechovirus A; Conc. 10 µM; read-out: antiviral effect, HPeV-1
Porcine Tescho virus = assay: microbe, parasite or virus in culture; format: cell-based; design: dose or concentration left out as unconfirmed; conditions: Conc.; read-out: antiviral effect, PTV
Enterovirus strain 30 = assay: CPE inhibition in mammalian cell culture, EV30; format: cell-based; conditions: Conc. 10 µM, read-out: antiviral effect, EV30
Enterovirus strain 71 = assay: CPE inhibition in mammalian cell culture, EV71; format: cell-based; design: inhibition: dose or concentration left out as unconfirmed
[3] = test system: coxsackie B virus strain 1; assay: CPE inhibition in mammalian cell culture, Cox-B1; format: cell-based; conditions: read-out: antiviral effect, B1
[4] = test system: coxsackie B virus strain 2; assay: CPE inhibition in mammalian cell culture, Cox-B2; format: cell-based; conditions: read-out: antiviral effect, B2
[5] = test system: coxsackie B virus strain 4; assay: CPE inhibition in mammalian cell culture, Cox-B4; format: cell-based; conditions: read-out: antiviral effect, B4
[6] = test system: coxsackie B virus strain 5; assay: CPE inhibition in mammalian cell culture, Cox-B5; format: cell-based; conditions: read-out: antiviral effect, B5
polio virus strain 1 = assay: microbe, parasite or virus in culture; format: cell-based; conditions: read-out: antiviral effect, Polio 1
[7] = test system: Coxsackie B3 virus, Nancy strain; assay: Anti-viral efficacy against Coxsackie virus in a neutropenic mouse model; format: in vivo, Male BALB/c mice; conditions: neutropenic BALB/c mice, Coxsackie B3 i.p., 200 mg/kg once daily per orally from day 1 or day 3
Protocol: The FIGURE is a diagram showing the number of surviving animals as a function of the number of days after infections with Coxsackie B3 virus, in mice treated with the compound of Ex. 9, 200 mg/kg once daily per orally starting on day 1 (group 1) or on day 3 (group 2), and in mice treated with vehicle only (0.4% Tween 80, 2% glycerol and 15% β-hydroxypropyl cyclodextrin).
Evaluation of Anti-Viral Efficacy Against Coxsackie Virus in a Neutropenic Mouse Model Test System Male BALB/c mice, weighing 22-26 grams were used with 4 animals/group. Neutropenic induction: Cyclophosphamide Challenge organism: Coxsackie (human origin) virus CVB3 Route of infection: Intraperitoneal Route of administration: per oral End point: Cumulative survival
All experimental procedures involving animals were performed according to protocols approved by the Institutional Animal Ethics Committee of Anthem Biosciences. The mice, male BALB/c mice were housed 4 animals per cage and allowed access to feed and water ad libitum under controlled conditions. Mice were acclimatized for 7 days prior to the study. The animals were observed daily for general health during this period. […]
The animals were observed daily during the study period for signs of mortality, morbidity (paralysis) and signs of acute toxicity. Abnormal clinical signs were recorded if observed.

[8] = female Sprague Dawley rats, single dose
[9] = Sprague Dawley rats, 250 and 750 mg/kg body weight/day for 7 days
Theiler = assay: CPE inhibition in mammalian cell culture, Theiler; format: cell-based; conditions: Conc. 10 μM

For COc1ccc(-c2c(C)nn3c(NCc4ccc(F)cc4)cc(C)nc23)cc1OC [Ex. 9, 3-(3,4-dimethoxyphenyl)-N-[(4-fluorophenyl)methyl]-2,5-dimethyl-pyrazolo[1,5-a]pyrimidin-7-amine], the inhibition at 10 µM (Ljungan virus strain 012) was 18%, the inhibition (Ljungan virus strain 145) was 59% and the inhibition [1] was 14%. The inhibition at 10 µM [2] was 19%, the inhibition (Porcine Tescho virus) was 23% and the inhibition at 10 µM (Enterovirus strain 30) was 35%. The inhibition (Enterovirus strain 71; Conc., read-out: antiviral effect, EV71) was 16%, the inhibition at 0.25 µM (Enterovirus strain 71; EV71, Conc. 0.25 μM) was 93% and the inhibition at 10000 µM [3] was 53%. The inhibition at 10000 µM [4] was 76%, the inhibition at 10000 µM [5] was 48% and the inhibition at 10000 µM [6] was 73%. For the same compound, the inhibition at 10000 µM (polio virus strain 1) was 91%, the Cumulative survival [7] was “has an antiviral effect in vivo and can extend the life of the animals” and the “adverse clinical signs or mortality” value (BALB/C mice, 200 and 400 mg/kg body weight/day for 7 days) was “did not reveal any adverse clinical signs or mortality”. For the same compound, the “No Observed Adverse Effect Level (NOAEL)” value (mouse, in vivo, po) was 400 mg/kg body weight/day, the maximum tolerable dose [8] was greater than 2000 mg/kg body weight and the “adverse clinical signs and mortality” value [9] was “adverse clinical signs in both sexes at 750 mg/kg and mortality in one female at 750 mg/kg”.

Compound Cc1cc(NCc2ccc(F)cc2)n2nc(C)c(-c3ccc(C(F)(F)F)cc3)c2n1 [Ex. 104, N-[(4-fluorophenyl)methyl]-2,5-dimethyl-3-[4-(trifluoromethyl)phenyl]pyrazolo[1,5-a]pyrimidin-7-amine] has an inhibition at 10 µM (Theiler) of 59%.
